Results as given in patent publication US10858415B2, “Peptide mimotopes of claudin 18.2 and uses thereof” (BioNTech AG, priority 2014, dated 2020).

Legend:
IMAB362 [1] = test: Peptide ELISA, biotinylated peptides on streptavidin plates; type: binding
Procedure: For the detection of IMAB362, the CLDN18.2 mimicking peptides were immobilized on streptavidin plates (Nunc) in a concentration of 0.75 μg/ml in PBS buffer for 1 hour at 37° C. Subsequently, the plate was washed three times with washing buffer (0.01% Tween-20 in PBS buffer) before it was blocked with 3% BSA in PBS overnight at 4° C. To detect IMAB362, the blocked plate was washed again three times with washing buffer followed by the addition of IMAB362 and incubation for 30 min at 37° C. After another washing step, it was incubated with an alkaline phosphatase conjugated anti-human Fc antibody (Jackson Immuno Research) for additional 30 min at 37° C. Finally, the plate was washed again before being incubated with 1.5 mg/ml of the substrate PNPP (para-nitrophenyl phosphate) in appropriate substrate buffer (1 M Diethanolamine, 0.05 mM MgCl2, 0.01% sodium azide, pH 9.8) for 30 min at RT in the dark. 3 M KOH was used to stop the enzymatic reaction. Absorbance was measured with a microplate reader (Infinite M200, Tecan). For dual wavelength analysis, 405 nm was chosen as measurement wavelength and 492 nm as reference wavelength. Absorbance values were calculated by subtraction of the measured values for the reference wavelength and for the measurement wavelength. Calculation of apparent KD values was done by fitting the data with Sigma Plot 10 using a two-site saturation binding model. […]

IMAB362 [2] = test: Peptide microarray incubation with IMAB362; type: binding; settings: IMAB362 1 μg/ml; percentage of fluorescence assay signal of the hit peptide
Procedure: Peptides were synthesized and printed on peptidemicroarray slides essentially as described previously [Funkner, A. et al., J. Mol. Biol. 2013, 425, 1340-1362]. In brief, the peptides were synthesized using SPOT synthesis [Wenschuh, H. et al., Biopolymers 2000, 55, 188-206] cleaved from the solid support and cyclized (50% DMSO, PBS buffer pH 7-8, RT, 16 hours). Subsequently, all peptides were chemoselectively immobilized on functionalized glass slides as described earlier [Funkner, A. et al., J. Mol. Biol. 2013, 425, 1340-1362]. Each peptide was deposited on the microarray in triplicates.
The microarrays were incubated with 1.0 or 0.1 μg/ml IMAB362 in an HS 4800 microarray processing station (Tecan) for two hours at 30° C., followed by incubation with 1.0 μg/ml fluorescently labelled secondary antibody (Alexa647 anti-human Fc antibody; Jackson Immuno Research). Washing steps were performed prior every incubation step with 0.1% Tween-20 in 1×TBS. After the final incubation step the microarrays were washed (0.05% Tween-20 in 0.1×SSC) and dried in a stream of nitrogen. Each microarray was scanned using a GenePix Autoloader 4200AL (Molecular Devices, Pixel size: 10 μm). Signal intensities were evaluated using GenePix Pro 7.0 analysis software (Molecular Devices). For each peptide, the mean of the three triplicates was calculated.
Peptide microarrays were used for structure-activity-relationship (SAR) analysis and optimization of peptide binding affinity to IMAB362. For assay setup three variants of each cyclic hit peptide (sequences 1, 2 and 3, Table 1) were prepared differing in a) the immobilization site, b) the linker nature and c) the degree of conformational restriction (cyclic vs. linear). All peptides were chemically synthesized in a stepwise fashion from the C- to the N-terminus by the high-throughput SPOT synthesis approach [Wenschuh, H. et al., Biopolymers 2000, 55, 188-206] applying a cellulose membrane as solid support. After cleavage and isolation, the peptides were cyclised through disulfide formation between two internal Cys residues and immobilized to the microarray. Covalent attachment to the microarray was performed through a reactive moiety on either the N- or C-terminus of the peptides allowing chemoselective and directed immobilization through both ends of the peptides. Subsequently, peptide loaded microarrays were incubated with 1.0 or 0.1 μg/ml IMAB362 followed by incubation with 1 μg/ml fluorescently labelled secondary antibody, scanning and data evaluation.
Target sequence in this assay (as listed by the source): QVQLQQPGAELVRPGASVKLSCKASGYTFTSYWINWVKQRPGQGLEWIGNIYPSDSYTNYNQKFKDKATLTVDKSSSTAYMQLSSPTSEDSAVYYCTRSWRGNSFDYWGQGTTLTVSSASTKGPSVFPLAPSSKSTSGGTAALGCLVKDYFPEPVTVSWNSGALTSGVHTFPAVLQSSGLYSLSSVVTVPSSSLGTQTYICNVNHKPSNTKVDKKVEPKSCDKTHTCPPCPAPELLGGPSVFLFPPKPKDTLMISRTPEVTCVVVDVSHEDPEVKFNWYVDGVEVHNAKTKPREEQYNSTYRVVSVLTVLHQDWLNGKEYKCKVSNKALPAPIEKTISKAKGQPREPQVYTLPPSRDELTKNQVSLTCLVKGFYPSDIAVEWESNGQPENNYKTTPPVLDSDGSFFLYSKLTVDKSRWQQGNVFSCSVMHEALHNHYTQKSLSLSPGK
Target sequence in this assay (as listed by the source): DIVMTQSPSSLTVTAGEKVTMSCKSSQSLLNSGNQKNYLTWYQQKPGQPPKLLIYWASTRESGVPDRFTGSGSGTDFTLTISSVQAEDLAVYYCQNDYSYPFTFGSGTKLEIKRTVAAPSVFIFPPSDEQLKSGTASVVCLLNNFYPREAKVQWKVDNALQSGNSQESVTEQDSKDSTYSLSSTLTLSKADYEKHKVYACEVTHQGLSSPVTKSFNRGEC

[3] = In vivo pharmacokinetic analysis, serum measured by peptide ELISA with 2c mimotope peptide; settings: approximately 50 mg/kg intravenously, Balb/cJ mice
Procedure: After 8, 24, 48, 72, 144, 168 and 192 hrs, blood samples were taken from two mice of each group for serum preparation. The serum samples were to be measured in the linear range of the assay (approximately 0.3-300 ng/ml). […] An IMAB362 standard row in presence of murine Balb/cJ control serum was assayed in parallel (0-25 ng/ml). The standard raw data were fitted by linear regression to calculate the antibody concentration from the mouse samples at the respective timepoint. Before the pharmakokinetic analysis, a permission for the animal experiment was obtained from the relevant local authority.

[4] = system: advanced gastro-esophageal cancer; settings: multiply pre-treated late-stage patients, single agent; cited from earlier work

| Compound | % Affinity compared to hit peptide (IMAB362 [2]) | also measured |
| --- | --- | --- |
| CC(C)[C@@H]1NC(=O)CNC(=O)[C@@H]2CCCN2C(=O)[C@H](Cc2ccc(O)cc2)NC(=O)CNC(=O)[C@H](Cc2ccc(O)cc2)NC(=O)[C@H](Cc2c[nH]cn2)NC(=O)[C@@H](NC(=O)[C@H](C)NC(=O)CCC(=O)NCCCOCCOCCOCCCNC(=O)CCCC[C@@H]2SC[C@@H]3NC(=O)N[C@@H]32)CSSC[C@@H](C(=O)NCC(=O)O)NC1=O [Peptide 2c] | – | binding curves of IMAB362 to peptide when antibody diluted with human serum (IMAB362 [1]; up to 20% human serum, background signal slightly increased at high serum concentrations): looked similar; binding of IMAB362 to peptide in the presence of mouse serum (IMAB362 [1]; up to 20% mouse serum): almost not affected |
| ACHLGYPGRCG [Cyclopeptide-GGS-K(X) Seq. 3] | 100% | – |
| ACHLGYPGRCG [X-Ttds-Linearpeptide Seq. 3] | 0.1% | – |
| ACHLNYPGYCG [Cyclopeptide-GGS-K(X) Seq. 1] | 100% | – |
| ACHLNYPGYCG [X-Ttds-Linearpeptide Seq. 1] | 0% | – |
| ACHYSYPGVCG [Cyclopeptide-GGS-K(X) Seq. 2] | 100% | – |
| ACHYSYPGVCG [X-Ttds-Linearpeptide Seq. 2] | 0% | – |
| IMAB362: highly tumor-specific monoclonal IgG1 antibody directed against Claudin 18 isoform 2 (CLDN18.2) | – | IMAB362 concentration in mice ([3]; after 8 hours): approximately 800 μg/ml; IMAB362 concentration in mice ([3]; at the end of the study (192 hrs)): approximately 350 μg/ml; antitumoral activity [4]: antitumoral activity; tolerability [4]: have shown tolerability |
